Legend:
[1] = system: human dermis fibroblasts NHDFs; assay: Cytotoxicity study of the fractions, cell viability to MTS (Example 3); type: cell-based; conditions: 24 h, 100, 50, 25, 12.5 and 6.25 μM, cytotoxicity threshold 80% viability
Procedure: (§1) The study has been made on human dermis fibroblasts NHDFs (ATCC, CRL-2522, origin: foreskin) at about 40% of their proliferative potential in vitro. These cells have been cultivated in single layer in DMEM medium (Invitrogen, 31885-049) containing 10% foetal calf serum (Invitrogen, 10270-106) and antibiotics (penicillin/streptomycin, Invitrogen, 15140-122). These cells have been maintained in a wet atmosphere at 37° C. containing 5% CO2.
In order to determine the optimum analysis concentration for the fractions, a preliminary experiment has been made on human dermis fibroblasts NHDFs having performed 30.3 population doublings. This study consisted in evaluating cell viability to MTS (3-(4,5-dimethythiazol-2-yl)-5-(3-carboxy-methoxyphenyl)-2-(4-sulphophenyl)-2H-tetrazolium) (Promega, G3581) after 24 h treatment for the 4 fractions, at 5 concentrations (100 μM, 50 μM, 25 μM, 12.5 μM, and 6.25 μM) and in culture triplicates (n=3). The fractions and extract have been prepared in DMSO and DPG70 respectively, the effect of these 2 vehicles has also been tested.
0.08% SDS (sodium dodecyl sulphate) has been used as a cytotoxicity positive control in order to validate the experiment.
In order to determine the optimum study concentration of the 4 fractions, a cytotoxicity study has been made on human dermis fibroblasts NHDFs, based on 5 concentrations after 24 h contact (n=3). The experimental parameters were identical to those used in the following for the study of the effects on the gene expression in terms of culture passages of the cells, confluence and contact time. The effect of the 2 vehicles (DPG70 and DMSO) has been tested in parallel.
The results have been compared to the untreated control and 0.08% SDS has been used as a cytotoxicity positive control in order to validate the experiment. The cytotoxicity threshold has been arbitrarily set to 80% viability.

[2] = system: fibroblasts NHDFs; assay: Real time qPCR of Nrf-2 regulated genes (Example 3); type: cell-based, human; conditions: 24 h, fraction at 50 μM, vs 0.5% DMSO control
Description: In order to determine which fraction of the extract according to the invention is responsible for this effect, the expression variations of seven target markers (involved in cellular and skin ageing induced by four fractions of an Ipomoea batatas root extract, and by the extract itself, in fibroblasts have been measured by qRT-PCR. A condition corresponding to fibroblasts NHDFs irradiated with UVA (10 J/cm^2) has been analysed in parallel as a positive control for the test.
The seven markers studied (HOMX1, NQO1, HSPA1A, GCLM, GSTP1, UGT1A6 and NOS2) are genes the expression of which is known to be regulated by the transcription factor Nrf-2, playing a major role in the antioxidant defence.
as §1
The extraction of total RNAs has been made using the RNeasy kit (Qiagen, 74106), after 24 h treatment with the fractions or 6 h after UVA irradiation. The cells have been rinsed with PBS and lysed in ad hoc buffer (culture triplicates have been made for each condition). The extraction and purification of the RNAs have been made according to the supplier's instructions. The total RNAs have been preserved at −80° C. afterwards.
The real time qPCR method has been used to quantise the expression of target markers in the different populations of RNAs. The specific TaqMan probes have been synthesised by the company Applied Biosystems.
The target sequences of the genes of interest have been amplified by PCR by using the “TaqMan Gene Expression Assays” (Applied Biosystems). […] The TaqMan probes have been grafted with a fluorophore (FAM) at the 5′ end of the sequence with a 3′ fluorescence quencher. […]

[3] = system: fibroblasts NHDFs; assay: Induction of a radical stress by the actives, ROS with H2DCFDA probe; type: cell-based, human; conditions: fibroblasts treated with Trolox, normalised to MTS viability, vs 0.1% EtOH control
Procedure: The study has been made on human dermis fibroblasts NHDFs (ATCC, CRL-2522, origin: foreskin) cultured in single layer in DMEM medium (Invitrogen, 31885-049) containing 10% foetal calf serum (Invitrogen, 10270-106) and antibiotics (Penicillin/Streptomycin, Invitrogen, 15140-122). These cells have been maintained in a wet atmosphere at 37° C. containing 5% CO2. In order to validate the hypothesis of a hormetic effect, it has been checked beforehand that the treatment by the actives alone induced a radical stress. The test used is based on the use of the fluorescent probe H2DCFDA (2′-7′dichlorodihydrofluorescein diacetate, Fischer Scientific, #D399). The probe diffusion into the cell enables its acetate group to be cleaved by intracellular esterases. […] The production of free radicals can thus be quantised by the level of fluorescence emitted by the probe oxidised. […] After rinsing, the fluorescence emitted has been quantised (excitation: 485 nm; emission: 520 nm). In order to provide a result representative of the cellular population of each condition, a cellular viability test (MTS) has been made immediately after quantising the fluorescence emitted. The fluorescence values have thus been normalised with respect to the cellular viabilities.

SMILES	cytotoxicity (cell viability to MTS) [1]	overexpression of genes of interest (HMOX1, HSPA1A, NQO1, GCLM, GSTP1; FIGS. 7 to 11) [2]	production of reactive oxygen species (ROS), radical stress [3]
O=C(/C=C/c1ccc(O)c(O)c1)OC1CC(O)(C(=O)O)CC(O)C1OC(=O)/C=C/c1ccc(O)c(O)c1 (stereo not shown) [STL964, 3,4-DCQ (Isochlorogenic acid B)]	no cytotoxicity	do not induce an overexpression	
O=C(/C=C/c1ccc(O)c(O)c1)OC1CC(O)(C(=O)O)CC(OC(=O)/C=C/c2ccc(O)c(O)c2)C1O (stereo not shown) [STL965, 3,5-DCQ (Isochlorogenic acid A)]	no cytotoxicity	do not induce an overexpression	
O=C(/C=C/c1ccc(O)c(O)c1)OC1CC(O)(C(=O)O)CC(O)C1OC(=O)/C=C/c1ccc(O)c(O)c1 (stereo not shown) [STL967, 4,5-DCQ (Isochlorogenic acid C)]	no cytotoxicity	do not induce an overexpression	
Cc1c(C)c2c(c(C)c1O)CCC(C)(C(=O)O)O2 (stereo not shown) [Trolox]			no radical stress
